Measured values published in patent publication US7833543B2, “High viscosity liquid controlled delivery system and medical or surgical device” (Durect Corporation, priority 1995, dated 2010).
Blank lines part the entries; values can stand above or below the compound they belong to.

Legend:
Assay type in all cases: physicochemical
[1] = Aerosol formulation with propellant R-134a: solution formation and sprayability
Protocol: 5.33 g of a 10 wt % solution of bupivacaine in a composition containing 70:30 SAIB/NMP, prepared as described in U.S. Pat. No. 5,747,058, was added to an aerosol container. 14.32 g of propellant R-134a (1,1,1,2-tetrafluoroethane) was added.
5.44 g of a 10 wt % solution of bupivacaine in a composition containing 70:30 SAIB/NMP, prepared as described in U.S. Pat. No. 5,747,058, was added to an aerosol container. 16.55 g. of propellant R-134a (1,1,1,2-tetrafluoroethane) was added.
0.87 g of bupivacaine base was added to an aerosol container. 8.47 g of an SAIB/propylene carbonate solution (70:30) containing 2.5 wt % of a biodegradable polymer (65:35 DLPLG) was added to the container. 0.98 g of ethanol was added to help the drug dissolve. Once dissolved, approximately 16 g of propellant R-134a (1,1,1,2-tetrafluoroethane) was added.

[2] = In vitro release of bupivacaine from precipitated drops into buffer (UV-vis 265 nm)
Protocol: CAPROL 10G4O (decaglycerol tetraoleate) was dissolved in benzyl benzoate at a weight ratio of 50:50. Bupivacaine was dissolved in this mixture at a concentration of 8.75 wt %. Drops weighing approximately 100 mg were precipitated into a test tube containing 40 mL of buffer. Samples of the buffer were removed at specified time points and replaced with fresh buffer. The samples were analyzed by UV-vis spectrophotometry at 265 nm to determine the concentration of bupivacaine in each buffer sample. At 4 hours, less than 7.5 wt % of the bupivacaine in the drop had been released to the buffer. At 48 hours, around 24.0 wt % of the bupivacaine had been released.
The 1,6-hexanediol lactate ε-hydroxycaproic acid produced in Example 1 was dissolved in N-methylpyrrolidone at a weight ratio of 70:30. 10 wt % bupivacaine base was then added to this mixture and dissolved. Drops weighing approximately 100 mg were precipitated into 40 mL buffer. Samples of buffer were removed at specified times and replaced with fresh buffer. Buffer samples were analyzed by UV-vis spectrophotometry at 265 nm to determine the concentration of bupivacaine in each buffer sample. At 4 hours, around 4.1 wt % of the bupivacaine contained in the precipitated drop had been released. At 24 hours, around 8.6 wt % of the bupivacaine had been released.

[3] = Dissolution of AZT and ddC SAIB formulations in soft gelatin capsules (USP XXIII Apparatus 2, Method B)
Protocol: Zidovudine (AZT) and dideoxycytodine (ddC) suspensions were prepared by mixing drug with SAIB/solvent solutions with and without a cellulosic coexcipient. Approximately 1 g of each formulation was filled into soft gelatin capsules, which were heat sealed. Dissolution profiles were determined using Apparatus 2, Method B (USP XXIII) at a paddle speed of 50 rpm. Individual gelcaps were placed in separate dissolution vessels, and samples of the buffer in each vessel were obtained at 0.25, 0.5, 1, 2, 3, 6, and 24 hours. The samples were analyzed at 266 and 272 nm on a Perkin Elmer Lambda 20 UV-vis spectrophotometer for AZT and ddC drug content, respectively.

[4] = In vitro release of paclitaxel and 5-FU from SAIB formulations into buffer (UV-vis); settings: for cumulative release: after 7 days, 37° C.
Protocol: Solutions of SAIB in the appropriate solvent were prepared with and without the incorporation of an additive. The active was weighed into a test tube and the SAIB/mixture was added and mixed thoroughly to yield a solution or suspension at the desired drug loading. Single drops of the mixture were precipitated into buffer by injection with standard syringes and needles. Samples were maintained at 37° C. in a shaker, sampled periodically, and analyzed by UV-vis spectrophotometry for active release. Paclitaxel and 5-FU samples were analyzed at 232 nm and 266 nm, respectively.

[5] = Dissolution of SAIB in propellants; settings: propellants 134a and 227, levels of 5 and 10 wt %
Protocol: SAIB was dissolved in propellants 134a (1,1,1,2-tetrafluoroethane) and 227 (1,1,1,2,3,3,3-heptafluoropropane) at levels of 5 and 10 wt %.

Compound: Cc1cn([C@H]2C[C@H](N=[N+]=[N-])[C@@H](CO)O2)c(=O)[nH]c1=O [AZT, Zidovudine]
- cumulative percent released ([3]; 11.1 wt % AZT in 70:30 SAIB/Migylol 810, 2 hours): 104.1%
- amount released ([3]; 11.1 wt % AZT in 85:15 SAIB/EtOH + 0.02 wt % CAB, 2 hours): 25.6%
- amount released ([3]; 11.1 wt % AZT in 85:15 SAIB/EtOH + 0.2 wt % CAB, 2 hours): 7.6%
- cumulative percent released ([3]; 11.1 wt % AZT in 85:15 SAIB/EtOH, 2 hours): 71.2%
- cumulative percent released ([3]; active loading doubled to 22.2 wt % in 85:15 SAIB/EtOH): 93.8%

Compound: Nc1ccn([C@H]2CC[C@@H](CO)O2)c(=O)n1 [ddC, dideoxycytodine]
- cumulative percent released ([3]; 0.225 wt % ddC in 70:30 SAIB/Migylol 810, 2 hours): 74.2%
- amount released ([3]; 0.225 wt % ddC in 85:15 SAIB/EtOH + 0.5 wt % CAB, 2 hours): 39.4%
- amount released ([3]; 0.225 wt % ddC in 85:15 SAIB/EtOH + 1.0 wt % CAB, 2 hours): 13.5%
- cumulative percent released ([3]; 0.225 wt % ddC in 85:15 SAIB/EtOH, 2 hours): 59.5%

Compound: O=c1[nH]cc(F)c(=O)[nH]1 [Example 5-FU, 5-fluorouracil]
- percent released ([4]; 10 mg/mL 5-FU in 85:15 SAIB/EtOH + 5 wt % Cremophor EL, after two days): 106.0%
- amount released ([4]; 10 mg/mL 5-FU in 85:15 SAIB/EtOH + Pluronic L-101, after two days): 102.0%
- percent released ([4]; 10 mg/mL 5-FU in 85:15 SAIB/EtOH, no surfactant, after two days): 80.6%

More lines, main results first:

- bupivacaine contained in the precipitated drop released ([2]; 1,6-hexanediol lactate ε-hydroxycaproic acid (Example 1)/N-methylpyrrolidone 70:30, 10 wt % bupivacaine base, 4 hours): around 4.1 wt %
- bupivacaine released ([2]; 1,6-hexanediol lactate ε-hydroxycaproic acid (Example 1)/N-methylpyrrolidone 70:30, 10 wt % bupivacaine base, 24 hours): around 8.6 wt %
- bupivacaine in the drop released to the buffer ([2]; CAPROL 10G4O (decaglycerol tetraoleate)/benzyl benzoate 50:50, 8.75 wt % bupivacaine, 4 hours): less than 7.5 wt %
- bupivacaine released ([2]; CAPROL 10G4O (decaglycerol tetraoleate)/benzyl benzoate 50:50, 8.75 wt % bupivacaine, 48 hours): around 24.0 wt %
Compound: CCCCN1CCCCC1C(=O)Nc1c(C)cccc1C (stereo not shown) [bupivacaine]
- sprayability of aerosol mixture ([1]; 0.87 g bupivacaine base, 8.47 g SAIB/propylene carbonate (70:30) with 2.5 wt % 65:35 DLPLG, 0.98 g ethanol, approx. 16 g R-134a): easily sprayed with no bubbling or foaming
- sprayability of aerosol mixture ([1]; 5.33 g of 10 wt % bupivacaine in 70:30 SAIB/NMP + 14.32 g propellant R-134a): easily sprayed with no bubbling or foaming
- sprayability of aerosol mixture ([1]; 5.44 g of 10 wt % bupivacaine in 70:30 SAIB/NMP + 16.55 g propellant R-134a): easily sprayed with no bubbling or foaming

- percent released ([4]; 25 mg/mL paclitaxel in 85:15 SAIB/EtOH + 5 wt % Cremophor EL, after two days in vitro): 77.0%
- percent released ([4]; 25 mg/mL paclitaxel in 85:15 SAIB/EtOH, no surfactant, after two days in vitro): 56.0%
- cumulative release ([4]; drug loading 5 mg/mL): 106.4%
- cumulative release ([4]; drug loading 25 mg/mL): 85.9%
- cumulative release ([4]; drug loading 50 mg/mL): 33.8%
Compound: CC(=O)O[C@H]1C(=O)[C@@]2(C)[C@H]([C@H](OC(=O)c3ccccc3)[C@]3(O)C[C@H](OC(=O)[C@H](O)[C@@H](NC(=O)c4ccccc4)c4ccccc4)C(C)=C1C3(C)C)[C@]1(OC(C)=O)CO[C@@H]1C[C@@H]2O [paclitaxel]

- appearance on dissolution in propellants [5]: Clear solutions were formed
Compound: sucrose acetate isobutyrate [SAIB]
